Laboratory results reported in patent US11618747B2, “LXR modulators with bicyclic core moiety” (OrsoBio, Inc., priority 2018, dated 2023).
Like-named read-outs stand apart in the source and are kept apart here.

Columns and labels:
full length (FL) LXRβ = target: T1, full length (FL) LXRβ (Homo sapiens, UniProt P55055, DUP175-175); experiment: LXR Gal4 reporter transient transfection assay (FL-M2H Gal4β); format: cell-based; settings: HEK293 cells, full length LXRβ; read-out: FL-M2H Gal4β (EC50 range)
T1 construct: the full length (FL) proteins of LXRα (amino acids 1-447); NP005684; NP009052; expressed in transfected cells; host or cells: HEK293
T1 sequence (P55055 with tags, fused parts or gaps DUP175-175): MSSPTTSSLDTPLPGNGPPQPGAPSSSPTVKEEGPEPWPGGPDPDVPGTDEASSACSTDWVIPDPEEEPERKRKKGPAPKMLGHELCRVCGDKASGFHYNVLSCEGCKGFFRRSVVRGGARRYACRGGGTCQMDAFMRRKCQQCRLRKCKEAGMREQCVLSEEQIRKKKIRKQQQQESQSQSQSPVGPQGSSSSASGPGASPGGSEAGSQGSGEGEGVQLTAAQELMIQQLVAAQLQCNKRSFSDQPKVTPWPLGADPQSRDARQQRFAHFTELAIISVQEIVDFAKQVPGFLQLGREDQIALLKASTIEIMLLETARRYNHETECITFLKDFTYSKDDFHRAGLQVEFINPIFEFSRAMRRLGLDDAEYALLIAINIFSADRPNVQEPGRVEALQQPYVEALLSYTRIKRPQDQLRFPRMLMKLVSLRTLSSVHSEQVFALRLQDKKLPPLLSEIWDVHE
How it was run: (§1)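 Mammalian two-hybrid in HEK293 cells transiently transfected with NFkB-AD-fused FL or LBD LXR plus GAL4-BD-fused SRC1 or NCoR cofactor domains and GAL4-responsive firefly luciferase reporter, Renilla-normalized. Compound added 4 h post-transfection (≤0.2% DMSO), 16 h incubation, luminescence read.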

[1] = Pharmacokinetics in mice after single oral dosing (blood/plasma and liver exposure); format: in vivo, mice (C57/bl6/J)
Protocol: The pharmacokinetics of the compounds was assessed in mice after single dosing and oral administrations. Blood/plasma and liver exposure was measured via LC-MS.
The study design was as follows:
Animals: C57/bl6/J (Janvier) males
Diet: standard rodent chow
Animal handling: animals were withdrawn from food at least 12 h before administration
Design: single dose oral administration, n=3 animals per group
Sacrifice: at stated time point (4, 12 or 24 h) after administration
Bioanalytics: LC-MS of liver and blood/plasma samples

[2] = target: T2, ligand-binding domain (LBD) of LXRβ (Homo sapiens, UniProt P55055, DUP175-175); experiment: LXR Gal4 reporter transient transfection assay (LBD-M2H Gal4β); format: cell-based; settings: HEK293 cells, LXRβ LBD; read-out: LBD-M2H Gal4β (EC50 range)
T2 construct: LXRβ (amino acids 156-461); expressed in transfected cells; host or cells: HEK293
T2 sequence (P55055 with tags, fused parts or gaps DUP175-175 limits assumed): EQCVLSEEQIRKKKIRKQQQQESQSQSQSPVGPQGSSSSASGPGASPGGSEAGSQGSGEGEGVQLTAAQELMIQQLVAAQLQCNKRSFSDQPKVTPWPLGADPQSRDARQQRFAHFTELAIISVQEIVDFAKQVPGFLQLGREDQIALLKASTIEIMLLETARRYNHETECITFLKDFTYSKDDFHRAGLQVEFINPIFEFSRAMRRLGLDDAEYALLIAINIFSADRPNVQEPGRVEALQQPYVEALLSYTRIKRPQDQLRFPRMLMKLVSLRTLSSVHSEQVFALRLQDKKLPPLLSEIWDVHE
How it was run: as §1

[3] = target: T3, ligand-binding domain (LBD) of LXRα (Homo sapiens, UniProt Q13133); experiment: LXR Gal4 reporter transient transfection assay (LBD-M2H Gal4α); format: cell-based; settings: HEK293 cells, LXRα LBD; read-out: LBD-M2H Gal4α (EC50 range)
T3 construct: expressed in transfected cells; host or cells: HEK293
T3 sequence (Q13133 155-447): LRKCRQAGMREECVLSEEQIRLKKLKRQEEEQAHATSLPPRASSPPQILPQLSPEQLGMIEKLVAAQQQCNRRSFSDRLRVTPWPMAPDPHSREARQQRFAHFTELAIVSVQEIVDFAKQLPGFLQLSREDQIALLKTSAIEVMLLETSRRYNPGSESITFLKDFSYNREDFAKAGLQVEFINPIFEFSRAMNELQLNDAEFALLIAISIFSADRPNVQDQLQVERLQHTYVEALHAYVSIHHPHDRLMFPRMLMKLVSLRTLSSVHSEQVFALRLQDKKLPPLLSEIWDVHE
Protocol: The tested compounds were usually dissolved, tested and stored as 20 mM stock solutions in DMSO. Since sulfonyl acetic acid derivatives tend to decarboxylate under these conditions, these stock solutions were prepared, tested and stored as 20 mM DMSO stock solutions containing 100 mM trifluoroacetic Acid (5 equivalents). Sulfonyl acetic acid derivatives are shelf stable as solid at rt for long time as reported by Griesbrecht et al. (Synlett 2010:374) or Faucher et al. (J. Med. Chem. 2004; 47:18).
LXR Gal4 Reporter Transient Transfection Assays
LXRα and LXRβ activity status was determined via detection of interaction with coactivator and corepressor proteins in mammalian two-hybrid experiments (M2H). For this, via transient transfection the full length (FL) proteins of LXRα (amino acids 1-447; NP005684; SEQ ID NO:1) or LXRβ-(amino acids 1-461; NP009052; SEQ ID NO:2) or the ligand-binding domains (LBD) of LXRα (amino acids 155-447 SEQ ID NO:3) or LXRβ (amino acids 156-461; SEQ ID NO:4) were expressed from pCMV-AD (Stratagene) as fusions to the transcriptional activation domain of NFkB. As cofactors, domains of either the steroid receptor coactivator 1 (SRC1; amino acids 552-887; SEQ ID NO:5) or of the corepressor NCoR (amino acids 1906-2312; NP006302; SEQ ID NO:6) were expressed as fusions to the DNA binding domain of the yeast transcription factor GAL4 (from pCMV-BD; Stratagene). Interaction was monitored via activation of a coexpressed Firefly Luciferase Reporter gene under control of a promoter containing repetitive GAL4 response elements (vector pFRLuc; Stratagene). Transfection efficiency was controlled via cotransfection of constitutively active pRL-CMV Renila reniformis luciferase reporter (Promega). HEK293 cells were grown in minimum essential medium (MEM) with 2 mM L-glutamine and Earle's balanced salt solution supplemented with 8.3% fetal bovine serum, 0.1 mM non-essential amino acids, 1 mM sodium pyruvate, at 37° C. in 5% CO2. 3.5×10^4 cells/well were plated in 96-well cell culture plates in growth medium supplemented with 8.3% fetal bovine serum for 16-20 h to ˜90% confluency. For transfection, medium was taken off and LXR and cofactor expressing plasmids as well as the reporter plasmids are added in 30 μL OPTIMEM/well including polyethylene-imine (PEI) as vehicle. Typical amounts of plasmids transfected/well: pCMV-AD-LXR (5 ng), pCMV-BD-cofactor (5 ng), pFR-Luc (100 ng), pRL-CMV (0.5 ng). Compound stocks were prepared in DMSO, prediluted in MEM to a total volume of 120 μL, and added 4 h after addition of the transfection mixture (final vehicle concentration not exceeding 0.2%). Cells were incubated for additional 16 h, lysed for 10 min in 1× Passive Lysis Buffer (Promega) and Firefly and Renilla luciferase activities were measured sequentially in the same cell extract using buffers containing D-luciferine and coelenterazine, respectively. Measurements of luminescence were done in a BMG-luminometer.

full length (FL) LXRα = target: T4, full length (FL) LXRα (Homo sapiens, UniProt Q13133); experiment: LXR Gal4 reporter transient transfection assay (FL-M2H Gal4α); format: cell-based; settings: HEK293 cells, full length LXRα; read-out: FL-M2H Gal4α (EC50 range)
T4 construct: the full length (FL) proteins of LXRα (amino acids 1-447); NP005684; expressed in transfected cells; host or cells: HEK293
T4 sequence (Q13133 1-447): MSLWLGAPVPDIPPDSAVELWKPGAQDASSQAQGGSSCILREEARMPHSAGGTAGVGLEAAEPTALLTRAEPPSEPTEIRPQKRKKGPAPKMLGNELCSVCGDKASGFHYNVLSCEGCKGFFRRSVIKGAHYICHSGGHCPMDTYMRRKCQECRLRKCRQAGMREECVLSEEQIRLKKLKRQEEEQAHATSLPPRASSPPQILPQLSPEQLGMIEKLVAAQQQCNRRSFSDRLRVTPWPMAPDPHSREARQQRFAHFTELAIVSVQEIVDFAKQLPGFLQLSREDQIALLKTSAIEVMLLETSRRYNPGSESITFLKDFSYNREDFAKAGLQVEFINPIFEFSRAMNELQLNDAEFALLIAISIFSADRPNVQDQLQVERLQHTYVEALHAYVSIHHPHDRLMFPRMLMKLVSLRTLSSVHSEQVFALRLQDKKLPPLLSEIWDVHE
How it was run: as §1

[4] = target: T5, LXRβ ligand-binding domain (Homo sapiens, UniProt P55055, DUP175-175); experiment: TR-FRETβ activity assay (NCoA3 coactivator peptide recruitment); format: biochemical; settings: TR-FRET, 1 μM 24(S)-25-epoxycholesterol prestimulation; read-out: FRETβ (EC50 range)
T5 construct: amino acids 156-461; NP009052; made in house; host or cells: E. coli
T5 sequence (P55055 with tags, fused parts or gaps DUP175-175 limits assumed): T2 sequence (P55055 with tags, fused parts or gaps DUP175-175 limits assumed)
How it was run: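 Inverse agonism assessed by loss of coactivator recruitment, read as TR-FRET 665/615 nm after 1 h equilibration at 4 °C, in triplicate. Ten-point titration from 50 μM to 0.002 μM against LXRβ LBD (76 nM, GST fusion) prestimulated with 1 μM 24(S)-25-epoxycholesterol, with 400 nM NCoA3 peptide, pH 6.8. Sulfonyl acetic acids kept as 20 mM DMSO stocks with 100 mM TFA.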

[5] = human liver microsomal assay; cited from earlier work
[6] = rat liver microsomal assay; cited from earlier work
[7] = 20 mg/kg single oral dose, time point 4 h

## N#Cc1sccc1-c1c(-c2cccc(C3CC3C(=O)O)c2)n(S(=O)(=O)c2ccc(Cl)cc2)c2ccc(F)cc12 (centres unmarked) [3/24]
Full length (FL) LXRβ
  EC50: < 0.1 µM
[1]; [7]
  blood/plasma exposure: D (D: <100 nM)
  liver exposure: C (C: 1 μM to ≤3 μM)
  liver/blood ratio: D (D: >30)
[2]
  EC50: < 0.1 µM
[3]
  EC50: < 0.1 µM
Full length (FL) LXRα
  EC50: < 0.1 µM

## N#Cc1sccc1-c1c(-c2cccc(C3CC3C(=O)O)c2)n(S(=O)(=O)c2ccc(Cl)cc2)c2ccccc12 (centres unmarked) [30/4]
[1]; [7]
  blood/plasma exposure: C (C: 100 nM to <300 nM)
  liver exposure: C (C: 1 μM to ≤3 μM)
  liver/blood ratio: C (C: 10 to ≤30)
[2]
  EC50: < 0.1 µM
[3]
  EC50: 0.1 to 1 µM
[4]
  EC50: 1 to 10 µM

## N#Cc1sccc1-c1c(-c2cccc(N3CC(C(=O)O)C3)c2)n(S(=O)(=O)c2ccc(Cl)cc2)c2ccccc12 [30/7]
[1]; [7]
  blood/plasma exposure: D (D: <100 nM)
  liver exposure: B (B: 300 nM to ≤1 μM)
  liver/blood ratio: D (D: >30)
[2]
  EC50: < 0.1 µM
[3]
  EC50: < 0.1 µM
[4]
  EC50: 0.1 to 1 µM

## Cc1ccc(S(=O)(=O)n2c(-c3cccc(-c4ccc(CN5CCN(C)CC5)cc4)c3)c(-c3ccsc3C#N)c3cc(F)ccc32)cc1 [Example 8, 3-(5-Fluoro-2-(4′-((4-methylpiperazin-1-yl)methyl)-[1,1′-biphenyl]-3-yl)-1-tosyl-1H-indol-3-yl)thiophene-2-carbonitrile]
Full length (FL) LXRβ
  EC50: < 0.1 µM
[1]; [7]
  blood/plasma exposure: B (B: 300 nM to ≤1 μM)
  liver exposure: D (D: >3 μM)
  liver/blood ratio: B (B: 3 to ≤10)
[4]
  EC50: 0.1 to 1 µM

## Cc1cc(C)c(S(=O)(=O)N(Cc2ccc(-c3cccc(S(C)(=O)=O)c3)cc2)Cc2ccc(C(F)(F)F)o2)c(C)c1 [GSK2033, reference compound]
[1]; [7]
  blood/plasma exposure (below LLOQ, LLOQ given): (14.4 ng/mL)
  liver exposure (below LLOQ, LLOQ given): (9.6 ng/mL)
[1]; oral administration
  oral bioavailability (in words): not orally bioavailable
[5]
  clearance (Clint): > 1.0 mL/min/mg protein
[6]
  clearance (Clint): > 1.0 mL/min/mg protein
